Laboratory results from ChEMBL document CHEMBL5346970, “Targeting EP2 Receptor for Drug Discovery: Strengths, Weaknesses, Opportunities, and Threats (SWOT) Analysis” (J Med Chem, 2023).

Experiments:
SK-N-AS [1] = experiment: Antitumor activity against human SK-N-AS cells xenografted in athymic nude mouse assessed as reduction in tumor proliferation at 20 mg/kg, ip administered once daily for 18 days by Ki-67 staining based immunohistochemistry analysis relative to control; assay type: functional; set-up: scale not given: the % may be the effect or the level left; details: time 18 day
SK-N-AS [2] = experiment: Antitumor activity against human SK-N-AS cells xenografted in athymic nude mouse assessed as reduction in tumor proliferation at 10 mg/kg, ip administered once daily for 18 days by Ki-67 staining based immunohistochemistry analysis relative to control; assay type: functional; set-up: scale not given: the % may be the effect or the level left; details: time 18 day
[3] = biological target: Prostaglandin E2 receptor EP2 subtype (Mus musculus, UniProt Q62053); experiment: Antagonist activity at EP2 receptor in C57BL/6 mouse trachea assessed as inhibition of PGE2-induced relaxation in rings of trachea pretreated for 30 mins in presence of carbachol followed by PGE2 relaxation; assay type: functional, tissue-based
Sequence of Prostaglandin E2 receptor EP2 subtype (Q62053 whole entry): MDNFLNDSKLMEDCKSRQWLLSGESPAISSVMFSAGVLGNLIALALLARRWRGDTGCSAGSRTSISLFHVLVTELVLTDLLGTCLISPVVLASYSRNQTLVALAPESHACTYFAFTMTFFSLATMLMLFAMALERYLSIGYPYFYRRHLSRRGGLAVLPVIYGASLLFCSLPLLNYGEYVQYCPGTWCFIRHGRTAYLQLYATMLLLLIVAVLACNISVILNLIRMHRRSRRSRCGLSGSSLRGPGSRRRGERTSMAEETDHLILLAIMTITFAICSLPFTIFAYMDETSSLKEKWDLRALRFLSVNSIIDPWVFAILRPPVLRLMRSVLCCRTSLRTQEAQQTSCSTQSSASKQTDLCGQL

[4] = Terminal half life in Sprague-Dawley rat at 0.1 ml/kg, po; assay type: ADME; details: in vivo, read-out: beta t1/2 (converted)
[5] = Oral bioavailability in Sprague-Dawley rat at 0.1 ml/kg; assay type: ADME, organism-based; details: in vivo

IC50 [3] [nM]	half-life [4] [h]	bioavailability [5] [%]	SMILES	Activity (SK-N-AS [1]) [%]	Activity (SK-N-AS [2]) [%]
–	–	–	CCc1nnc(NS(=O)(=O)c2ccc(NC(=S)NC(=O)/C=C/c3ccc(F)cc3)cc2)s1	55	25
2.7	8.8	78	COc1ccc2cc(OCC3(C(=O)O)CN(C(=O)c4ccc(F)cc4)C3)ccc2c1 [PF-04418948]	–	–
